Test results reported in patent publication US6380387B1, “4-Pyrimidinyl-n-acyl-l phenylalanines” (Hoffmann-La Roche Inc., priority 1999, dated 2002).

Molecular target: T1, alpha4-beta7 (Homo sapiens, UniProt P13612+P26010)
T1 construct: Sufficient RPMI 8866 cells were removed from stock for assay; endogenous in cells; host or cells: RPMI 8866 cells
T1 sequence (P13612 34-1032): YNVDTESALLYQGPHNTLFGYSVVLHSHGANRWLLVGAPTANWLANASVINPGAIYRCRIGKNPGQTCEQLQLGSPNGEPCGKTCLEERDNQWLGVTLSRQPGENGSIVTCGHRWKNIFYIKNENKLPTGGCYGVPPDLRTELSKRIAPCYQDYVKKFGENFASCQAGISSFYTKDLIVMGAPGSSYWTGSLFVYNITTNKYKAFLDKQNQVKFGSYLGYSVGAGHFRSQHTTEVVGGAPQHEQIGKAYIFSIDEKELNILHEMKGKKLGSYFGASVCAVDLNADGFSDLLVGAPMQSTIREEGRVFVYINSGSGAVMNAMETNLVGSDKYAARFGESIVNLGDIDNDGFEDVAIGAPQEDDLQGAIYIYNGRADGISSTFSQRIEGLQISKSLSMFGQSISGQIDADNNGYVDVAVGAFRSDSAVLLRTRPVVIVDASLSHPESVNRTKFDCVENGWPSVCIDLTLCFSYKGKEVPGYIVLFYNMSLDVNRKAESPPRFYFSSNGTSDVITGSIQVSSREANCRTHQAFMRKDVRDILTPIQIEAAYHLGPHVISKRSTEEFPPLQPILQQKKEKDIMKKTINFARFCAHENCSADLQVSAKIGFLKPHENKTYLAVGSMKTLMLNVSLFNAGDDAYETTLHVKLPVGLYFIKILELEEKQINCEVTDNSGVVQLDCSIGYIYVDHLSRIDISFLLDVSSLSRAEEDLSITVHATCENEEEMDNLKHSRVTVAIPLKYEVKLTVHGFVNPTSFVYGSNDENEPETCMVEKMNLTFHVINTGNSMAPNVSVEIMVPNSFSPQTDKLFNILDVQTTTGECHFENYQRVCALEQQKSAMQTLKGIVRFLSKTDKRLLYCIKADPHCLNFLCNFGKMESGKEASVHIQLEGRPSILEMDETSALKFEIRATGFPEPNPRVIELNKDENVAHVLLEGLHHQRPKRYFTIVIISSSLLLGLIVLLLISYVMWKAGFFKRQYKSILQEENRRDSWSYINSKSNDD
T1 sequence (P26010 20-798): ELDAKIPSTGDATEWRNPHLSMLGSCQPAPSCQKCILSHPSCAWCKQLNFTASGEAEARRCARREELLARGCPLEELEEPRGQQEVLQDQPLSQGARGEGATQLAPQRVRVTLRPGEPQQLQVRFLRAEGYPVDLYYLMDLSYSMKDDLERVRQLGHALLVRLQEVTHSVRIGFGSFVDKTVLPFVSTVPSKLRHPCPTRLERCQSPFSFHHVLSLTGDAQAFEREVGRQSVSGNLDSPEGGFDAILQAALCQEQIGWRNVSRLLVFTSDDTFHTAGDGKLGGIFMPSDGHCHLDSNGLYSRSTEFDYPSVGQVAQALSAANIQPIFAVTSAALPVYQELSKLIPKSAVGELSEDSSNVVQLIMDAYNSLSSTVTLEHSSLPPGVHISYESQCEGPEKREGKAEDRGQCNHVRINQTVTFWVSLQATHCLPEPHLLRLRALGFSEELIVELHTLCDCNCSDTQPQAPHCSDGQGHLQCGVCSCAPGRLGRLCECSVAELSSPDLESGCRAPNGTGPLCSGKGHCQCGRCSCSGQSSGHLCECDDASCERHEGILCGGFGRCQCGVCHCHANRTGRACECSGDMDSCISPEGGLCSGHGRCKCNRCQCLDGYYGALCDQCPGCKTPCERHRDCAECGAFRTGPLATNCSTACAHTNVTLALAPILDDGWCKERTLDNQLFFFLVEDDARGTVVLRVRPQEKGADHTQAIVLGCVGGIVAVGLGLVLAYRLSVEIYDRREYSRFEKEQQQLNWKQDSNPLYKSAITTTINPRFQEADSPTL
Assay: Alpha4-Beta7 Assay (MadCAM/RPMI 8866 cell adhesion)
Format: cell-based
Details: calcein labeled RPMI 8866 cells adhering to immobilized MadCAM
Procedure: Alpha4-Beta7 Assay Protocol
Two weeks to one day prior to the assay, Nunc high-binding F96 Maxisorp immuno plates, #442404 or #439454, were coated with 25 ng/well (0.25 μg/ml) MadCAM in a volume of 100 μl/well. The plates were covered with sealer and wrapped in saran wrap followed by incubation in the refrigerator for at least 24 hours. The coating buffer employed was: 10 mM carbonate/bicarbonate buffer made up from: 0.8 g/L sodium carbonate and 1.55 g/L sodium bicarbonate adjusted to pH 9.6 with 1 N HCl. Assay buffers consisted of the following:
Plates were washed 2× with wash buffer and then blocked at room temperature for at least 1 hour with Blocking Buffer. Sealed plates were sometimes blocked overnight in the refrigerator. Plates were then washed with PBS and hand blotted dry. Remaining liquid was aspirated from the wells.
Sufficient RPMI 8866 cells were removed from stock for assay (2×10^6 cells/ml×10 ml/plate×number of plates) and placed in a centrifuge tube. The tubes were filled to volume with PBS and were spun at 200×G for 8 minutes. The buffer was poured off and the cells were resuspended to 10×10^6/ml in PBS and a stock solution of calcein in DMSO (5mg/mL) was added at 51 μl/ml of cell suspension. The suspension was incubated for 30 minutes at 37° C. in dark. The cells were then washed with PBS. The PBS was poured off and the cells resuspended in cell buffer at a concentration of 2×10^6 cells/mL for plating in the assay.
Stock solution of test compounds at 25× first dilution desired in 100% DMSO were prepared. First dilutions for the standard, as well as test compounds, were 1:25 into straight Binding Buffer, while the remaining serial dilutions were into Dilution Buffer (Binding Buffer/4% DMSO). Stock concentrations and dilutions of compounds for screening were determined by anticipated activity.
For the assay, 129 μl Binding Buffer was plated into first row of wells and 100 μl Dilution Buffer was plated into remaining wells. A 5.44 μl aliquot of each compound was pipetted into appropriate, labeled wells, in triplicate. The compounds were next diluted down the plate (34 μl+100 μl=>4-fold dilution). For controls, 100 μl of Dilution Buffer 100 μl Cell Buffer were plated into the nonspecific background wells (no cells, no compound) and 100 μl Dilution Buffer+100 μl cells were plated into the total binding wells (no compound=100% binding). Labeled cells at 2×10^6 cells/ml, 100 μl/well (=2×10^5 cells/well) were added to each well containing compound. The plates were sealed and incubated in the dark for 45 minutes at room temperature. Following incubation, unbound cells were removed by adding 150 μl PBS/well. The plates were inverted, blotted onto paper towels and washed by gently adding 200 μl PBS to wells and blotting again. Remaining buffer was carefully aspirated from the wells. A final 100 μl PBS was added to each well.
The plates were then read for fluorescence intensity on a Cytofluor 2300 (Millipore) fluorecence measurement system (excitation=485 nm, emission=530 nm). IC50s of each compound were determined by linear regression analysis.

Compound	IC50
Cc1c(-c2ccc(C[C@H](NC(=O)c3c(Cl)cccc3Cl)C(=O)O)cc2)c(=O)n(C)c(=O)n1C [Example 6, N-[(2,6-dichlorophenyl)carbonyl]-4-(1,3,6-trimethyl-2,4-dioxo-5-pyrimidinyl)-L-phenylalanine]	< 0.1 µM
COCCC1(C(=O)N[C@@H](Cc2ccc(-c3c(C)n(C)c(=O)n(C)c3=O)cc2)C(=O)O)CCCC1 [Example 7, N-[[1-(2-methoxyethyl)cyclopentyl]carbonyl]-4-(1,3,6-trimethyl-2,4-dioxo-5-pyrimidinyl)-L-phenylalanine]	< 0.1 µM
Cc1cccc(Br)c1C(=O)N[C@@H](Cc1ccc(-c2c(C)n(C)c(=O)n(C)c2=O)cc1)C(=O)O [Example 8, N-[(2-bromo-6-methylphenyl)carbonyl]-4-(1,3,6-trimethyl-2,4-dioxo-5-pyrimidinyl)-L-phenylalanine]	< 0.1 µM
Cc1cccc(Cl)c1C(=O)N[C@@H](Cc1ccc(-c2c(C)n(C)c(=O)n(C)c2=O)cc1)C(=O)O [Example 9, N-[(2-chloro-6-methylphenyl)carbonyl]-4-(1,3,6-trimethyl-2,4-dioxo-5-pyrimidinyl)-L-phenylalanine]	< 0.1 µM
CCc1cccc(C)c1C(=O)N[C@@H](Cc1ccc(-c2c(C)n(C)c(=O)n(C)c2=O)cc1)C(=O)O [Example 10, N-[(2-ethyl-6-methylphenyl)carbonyl]-4-(1,3,6-trimethyl-2,4-dioxo-5-pyrimidinyl)-L-phenylalanine]	< 10 µM
Cc1cccc(C(C)C)c1C(=O)N[C@@H](Cc1ccc(-c2c(C)n(C)c(=O)n(C)c2=O)cc1)C(=O)O [Example 11, N-[[2-(2-methylethyl)-6-methylphenyl]carbonyl]-4-(1,3,6-trimethyl-2,4-dioxo-5-pyrimidinyl)-L-phenylalanine]	< 5 µM
Cc1c(-c2ccc(C[C@H](NC(=O)c3c(F)cccc3F)C(=O)O)cc2)c(=O)n(C)c(=O)n1C [Example 12, N-[(2,6-difluorophenyl)carbonyl]-4-(1,3,6-trimethyl-2,4-dioxo-5-pyrimidinyl)-L-phenylalanine]	< 0.1 µM
Cc1c(-c2ccc(C[C@H](NC(=O)c3c(F)cccc3C(F)(F)F)C(=O)O)cc2)c(=O)n(C)c(=O)n1C [Example 13, N-[(2-fluoro-6-(trifluoromethyl)phenyl)carbonyl]-4-(1,3,6-trimethyl-2,4-dioxo-5-pyrimidinyl)-L-phenylalanine]	< 10 µM

Results, then the compound that gave them:

IC50	Compound
< 5 µM	Cc1c(-c2ccc(C[C@H](NC(=O)c3c(C(C)C)cccc3C(C)C)C(=O)O)cc2)c(=O)n(C)c(=O)n1C [Example 14, N-[[2,6-di-(2-methylethyl)phenyl]carbonyl]-4-(1,3,6-trimethyl-2,4-dioxo-5-pyrimidinyl)-L-phenylalanine]
< 10 µM	CCc1cccc(Cl)c1C(=O)N[C@@H](Cc1ccc(-c2c(C)n(C)c(=O)n(C)c2=O)cc1)C(=O)O [Example 15, N-[(2-chloro-6-ethylphenyl)carbonyl]-4-(1,3,6-trimethyl-2,4-dioxo-5-pyrimidinyl)-L-phenylalanine]
< 10 µM	CCCc1cccc(Cl)c1C(=O)N[C@@H](Cc1ccc(-c2c(C)n(C)c(=O)n(C)c2=O)cc1)C(=O)O [Example 16, N-[(2-chloro-6-propylphenyl)carbonyl]-4-(1,3,6-trimethyl-2,4-dioxo-5-pyrimidinyl)-L-phenylalanine]
< 0.1 µM	CCn1c(C)c(-c2ccc(C[C@H](NC(=O)c3c(Cl)cccc3Cl)C(=O)O)cc2)c(=O)n(CC)c1=O [Example 18, N-[(2,6-dichlorophenyl)carbonyl]-4-(1,3-diethyl-6-methyl-2,4-dioxo-5-pyrimidinyl)-L-phenylalanine]
< 10 µM	CCn1c(C)c(-c2ccc(C[C@H](NC(=O)c3c(C)cccc3Cl)C(=O)O)cc2)c(=O)n(CC)c1=O [Example 19, N-[(2-chloro-6-methylphenyl)carbonyl]-4-(1,3-diethyl-6-methyl-2,4-dioxo-5-pyrimidinyl)-L-phenylalanine]
< 10 µM	CCn1c(C)c(-c2ccc(C[C@H](NC(=O)C3(CCOC)CCCC3)C(=O)O)cc2)c(=O)n(CC)c1=O [Example 20, 4-(1,3-diethyl-6-methyl-2,4-dioxo-5-pyrimidinyl)-N-[[1-(2-methoxyethyl)cyclopentyl]carbonyl]-L-phenylalanine]
< 10 µM	Cn1c(C(F)(F)F)c(-c2ccc(C[C@H](NC(=O)c3c(Cl)cccc3Cl)C(=O)O)cc2)c(=O)n(C)c1=O [Example 21, N-[1-(2,6-dichlorophenyl)carbonyl]-4-(1,3-dimethyl-2,4-dioxo-6-(trifluoromethyl)-5-pyrimidinyl)-L-phenylalanine]
< 10 µM	Cc1cccc(Cl)c1C(=O)N[C@@H](Cc1ccc(-c2c(C(F)(F)F)n(C)c(=O)n(C)c2=O)cc1)C(=O)O [Example 22, N-[(2-chloro-6-methylphenyl)carbonyl]-4-[1,3-dimethyl-2,4-dioxo-6-(trifluoromethyl)-5-pyrimidinyl]-L-phenylalanine]
< 10 µM	Cn1c(C(F)(F)F)c(-c2ccc(C[C@H](NC(=O)c3c(F)cccc3C(F)(F)F)C(=O)O)cc2)c(=O)n(C)c1=O [Example 23, N-[[2-fluoro-6-(trifluoromethyl)phenyl]carbonyl]-4-(1,3-dimethyl-2,4-dioxo-6-(trifluoromethyl)-5-pyrimidinyl)-L-phenylalanine]
